Source: patent US20180251431A1 (VERTEX PHARMACEUTICALS INCORPORATED, priority 2016, published 2018)

What follows are compounds tested on HEK293 cells (assay: HEK293 VLCFA-LPC IC50 determination (13C-labeled C26:0 LPC by UHPLC/MS)). Conditions: Homo sapiens, HEK293, 48 h, average of one or more replicates; 13C-labeled C26:0 LPC, 48 hours; read-out: Average HEK293 IC50.
Format: cell-based, human
Summary of the method: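 Suspension HEK293 cells (final 0.5 million/mL after mixing with equal volume) incubated 48 hours with compound plus 13C-acetate (1.0 mg/mL in added media), shaking at 37° C. Lipids extracted with hexane/isopropanol or methanol, C13:0 LPC standard. UHPLC/MS of 13C-labeled C26:0 LPC (638.500/104.100 m/z); IC50 by four-parameter fit.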

Compared with `O=C(Nc1ccn(-c2ccncc2)n1)C1(c2ccccc2)CC1(F)F` (single isomer, unassigned) [Compound 433], `Nc1cc(-n2ccc(NC(=O)C3(c4ccccc4F)CC3)n2)ccc1F` [Compound 385, N-[1-(3-amino-4-fluoro-phenyl)pyrazol-3-yl]-1-(2-fluorophenyl)cyclopropanecarboxamide] is 4.4-fold higher in IC50: 320 nM for the first, 1400 nM for the second. The first is the more potent here.

Going from `Cc1nccc(-n2ccc(NC(=O)C3(c4ccccc4F)CC3)n2)n1` [Compound 331, 1-(2-fluorophenyl)-N-[1-(2-methylpyrimidin-4-yl)pyrazol-3-yl]cyclopropanecarboxamide] to `COc1ncc(-n2ccc(NC(=O)C3(c4ccccc4F)CC3)n2)cc1F` [Compound 348, N-[1-(5-fluoro-6-methoxy-3-pyridyl)pyrazol-3-yl]-1-(2-fluorophenyl)cyclopropanecarboxamide], the IC50 falls from greater than 5000 nM to 33 nM. The second is the more potent here.

`O=C(Nc1ccn(-c2cncc(C(F)(F)F)c2)n1)C1(c2ccccc2F)CC1` [Compound 316, 1-(2-fluorophenyl)-N-[1-[5-(trifluoromethyl)-3-pyridyl]pyrazol-3-yl]cyclopropanecarboxamide] and `COc1cc(-n2ccc(NC(=O)C3(c4ccccc4F)CC3)n2)cc(OC)c1OC` [Compound 321, 1-(2-fluorophenyl)-N-[1-(3,4,5-trimethoxyphenyl)pyrazol-3-yl]cyclopropanecarboxamide] cannot be ordered by IC50: greater than 5000 nM for the first, greater than 5000 nM for the second.

Going from `O=C(Nc1ccn(-c2cncc(F)c2)n1)[C@]1(c2ncccc2F)CC12CC2` (single isomer, unassigned) [Compound 499] to `CN(C(=O)C1(c2ccccc2F)CC1)c1ccn(-c2ccnc(F)c2)n1` [Compound 363, 1-(2-fluorophenyl)-N-(1-(2-fluoropyridin-4-yl)-1H-pyrazol-3-yl)-N-methylcyclopropane-1-carboxamide], the IC50 rises from 740 nM to greater than 5000 nM. The first is the more potent here.

Same assay, conditions: Homo sapiens, HEK293, HEK293 cells; average of one or more replicates; read-out: Average HEK293 IC50

Compared with `CCOc1ccc(C2(C(=O)Nc3ccn(-c4ccccc4)n3)CC2)cc1` [Compound 33, 1-(4-ethoxyphenyl)-N-(1-phenylpyrazol-3-yl)cyclopropanecarboxamide], `O=C(Nc1ccn(-c2ccc(F)cc2)n1)C1(c2ccccc2)CC1` [Compound 184, N-[1-(4-fluorophenyl)pyrazol-3-yl]-1-phenyl-cyclopropanecarboxamide] is 3.5-fold lower in IC50: 990 nM for the first, 280 nM for the second. The second is the more potent here.

First: COc1ncc(-n2ccc(NC(=O)C3(c4ncccc4F)CC3)n2)cn1 [Compound 454, 1-(3-fluoro-2-pyridyl)-N-[1-(2-methoxypyrimidin-5-yl)pyrazol-3-yl]cyclopropanecarboxamide]
Second: O=C(Nc1ccn(-c2ccncn2)n1)C1(c2ncccc2F)CC1 [Compound 279, 1-(3-fluoro-2-pyridyl)-N-(1-pyrimidin-4-ylpyrazol-3-yl)cyclopropanecarboxamide]
The IC50 of the first is higher: greater than 5000 nM for the first, 520 nM for the second. The second is the more potent here.

`Cc1ncc(-n2ccc(NC(=O)C3(c4ccccc4F)CC3)n2)cn1` [Compound 241, 1-(2-fluorophenyl)-N-[1-(2-methylpyrimidin-5-yl)pyrazol-3-yl]cyclopropanecarboxamide] and `O=C(Nc1ccn(-c2cnoc2)n1)C1(c2ccccc2F)CC1` [Compound 424, 1-(2-fluorophenyl)-N-(1-(isoxazol-4-yl)-1H-pyrazol-3-yl)cyclopropane-1-carboxamide] cannot be ordered by IC50: greater than 5000 nM for the first, greater than 5000 nM for the second.

`O=C(Cc1cccnc1)Nc1ccn(-c2ccccc2)n1` [Compound 39, N-(1-phenylpyrazol-3-yl)-2-(3-pyridyl)acetamide] and `COc1cccc(CC(=O)Nc2ccn(-c3ccccc3)n2)c1` [Compound 46, 2-(3-methoxyphenyl)-N-(1-phenylpyrazol-3-yl)acetamide] cannot be ordered by IC50: greater than 5000 nM for the first, greater than 5000 nM for the second.

`Cn1ccnc1CC(=O)Nc1ccn(-c2ccccc2)n1` [Compound 311, 2-(1-methylimidazol-2-yl)-N-(1-phenylpyrazol-3-yl)acetamide] and `Cc1ccn(CC(=O)Nc2ccn(-c3ccccc3)n2)n1` [Compound 291, 2-(3-methylpyrazol-1-yl)-N-(1-phenylpyrazol-3-yl)acetamide] cannot be ordered by IC50: greater than 5000 nM for the first, greater than 5000 nM for the second.

Compared with `O=C(Nc1ccn(-c2ccccc2)n1)C1(c2cnccn2)CC1` [Compound 477, N-(1-phenylpyrazol-3-yl)-1-pyrazin-2-yl-cyclopropanecarboxamide], `O=C(Nc1ccn(-c2cncnc2)n1)C1(c2ccccc2)CC1` [Compound 98, 1-phenyl-N-(1-pyrimidin-5-ylpyrazol-3-yl)cyclopropanecarboxamide] is 14-fold lower in IC50: 1500 nM for the first, 110 nM for the second.

First: O=C(Cc1ccc(F)c(F)c1F)Nc1ccn(-c2ccccc2)n1 [Compound 74, N-(1-phenylpyrazol-3-yl)-2-(2,3,4-trifluorophenyl)acetamide]
Second: O=C(Cc1cc(F)ccc1F)Nc1ccn(-c2ccccc2)n1 [Compound 59, 2-(2,5-difluorophenyl)-N-(1-phenylpyrazol-3-yl)acetamide]
The IC50 of the first is higher: greater than 5000 nM for the first, 250 nM for the second.

First: Cc1ccc(-n2ccc(NC(=O)Cc3ccccc3F)n2)cn1 [Compound 119, 2-(2-fluorophenyl)-N-[1-(6-methyl-3-pyridyl)pyrazol-3-yl]acetamide]
Second: O=C(Cc1ccccc1F)Nc1ccn(-c2ccnc(Cl)c2)n1 [Compound 4, N-[1-(2-chloro-4-pyridyl)pyrazol-3-yl]-2-(2-fluorophenyl)acetamide]
The IC50 of the first is 5.4-fold higher: 3500 nM for the first, 650 nM for the second. The second is the more potent here.

Going from `CC1CC1(C(=O)Nc1ccn(-c2ccncc2)n1)c1ncccc1F` (centres unmarked) [Compound 528, 1-(3-fluoro-2-pyridyl)-2-methyl-N-[1-(4-pyridyl)pyrazol-3-yl]cyclopropanecarboxamide] to `CC1(C)CC1(C(=O)Nc1ccn(-c2ccc(F)cc2)n1)c1ncccc1F` (centres unmarked) [Compound 513, N-[1-(4-fluorophenyl)pyrazol-3-yl]-1-(3-fluoro-2-pyridyl)-2,2-dimethyl-cyclopropanecarboxamide], the IC50 rises from 270 nM to 980 nM (3.6-fold). The first is the more potent here.

`O=C(Cc1ccc(F)c(Cl)c1)Nc1ccn(-c2ccccc2)n1` [Compound 64, 2-(3-chloro-4-fluoro-phenyl)-N-(1-phenylpyrazol-3-yl)acetamide] and `O=C(Cc1ccccc1)Nc1ccn(-c2ncccc2F)n1` [Compound 93, N-[1-(3-fluoro-2-pyridyl)pyrazol-3-yl]-2-phenyl-acetamide] cannot be ordered by IC50: greater than 5000 nM for the first, greater than 10000 nM for the second.

First: Cc1cc(-n2ccc(NC(=O)C3(c4ccccc4F)CC3)n2)ccn1 [Compound 113, 1-(2-fluorophenyl)-N-[1-(2-methyl-4-pyridyl)pyrazol-3-yl]cyclopropanecarboxamide]
Second: CCOc1cc(-n2ccc(NC(=O)C3(c4ccccc4F)CC3)n2)ccn1 [Compound 449, N-[1-(2-ethoxy-4-pyridyl)pyrazol-3-yl]-1-(2-fluorophenyl)cyclopropanecarboxamide]
The IC50 of the first is lower: 1600 nM for the first, greater than 5000 nM for the second. The first is the more potent here.

`COc1cnccc1-n1ccc(NC(=O)C2(c3ccccc3F)CC2)n1` [Compound 411, 1-(2-fluorophenyl)-N-[1-(3-methoxy-4-pyridyl)pyrazol-3-yl]cyclopropanecarboxamide] and `COc1cc(-n2ccc(NC(=O)C3(c4ccccc4F)CC3)n2)ccc1F` [Compound 468, N-[1-(4-fluoro-3-methoxy-phenyl)pyrazol-3-yl]-1-(2-fluorophenyl)cyclopropanecarboxamide] cannot be ordered by IC50: greater than 5000 nM for the first, greater than 5000 nM for the second.

Going from `O=C(Nc1ccn(-c2ccc(C(F)(F)F)cc2)n1)C1(c2ccccc2F)CC1` [Compound 154, 1-(2-fluorophenyl)-N-[1-[4-(trifluoromethyl)phenyl]pyrazol-3-yl]cyclopropanecarboxamide] to `O=C(Nc1ccn(-c2ccc(C(F)(F)F)cc2)n1)C1(c2ccccc2)CC1` [Compound 156, 1-phenyl-N-[1-[4-(trifluoromethyl)phenyl]pyrazol-3-yl]cyclopropanecarboxamide], the IC50 rises from 360 nM to greater than 2000 nM.

`O=C(Cc1ccccc1F)Nc1ccn(-c2ncccc2F)n1` [Compound 94, 2-(2-fluorophenyl)-N-[1-(3-fluoro-2-pyridyl)pyrazol-3-yl]acetamide] and `O=C(Nc1ccn(-c2ncccc2Cl)n1)C1(c2ncccc2F)CC1` [Compound 453] cannot be ordered by IC50: greater than 10000 nM for the first, greater than 5000 nM for the second.

`O=C(Nc1ccn(-c2cccc(C(F)(F)F)c2)n1)C1(c2ccccc2)CC1` [Compound 159, 1-phenyl-N-[1-[3-(trifluoromethyl)phenyl]pyrazol-3-yl]cyclopropanecarboxamide] and `O=C(Nc1ccn(-c2ccc(Cl)cc2)n1)C1(c2ccccc2)CC1` [Compound 132, N-[1-(4-chlorophenyl)pyrazol-3-yl]-1-phenyl-cyclopropanecarboxamide] cannot be ordered by IC50: greater than 5000 nM for the first, greater than 5000 nM for the second.

First: O=C(Nc1ccn(-c2ccccc2)n1)C1(c2ccccc2Cl)CC1 [Compound 24, 1-(2-chlorophenyl)-N-(1-phenylpyrazol-3-yl)cyclopropanecarboxamide]
Second: O=C(Nc1ccn(-c2ccccc2)n1)C(c1ccccc1)C1CC1 (centres unmarked) [Compound 179, 2-cyclopropyl-2-phenyl-N-(1-phenylpyrazol-3-yl)acetamide]
The IC50 of the first is 39-fold lower: 41 nM for the first, 1600 nM for the second. The first is the more potent here.

First: O=C(Nc1ccn(-c2cncc(F)c2)n1)C1(c2ncc(Cl)cc2F)CC1 [Compound 498, 1-(5-chloro-3-fluoropyridin-2-yl)-N-(1-(5-fluoropyridin-3-yl)-1H-pyrazol-3-yl)cyclopropane-1-carboxamide]
Second: O=C(Nc1ccn(-c2cc(F)cc(F)c2)n1)C1(c2ncccc2F)CC12CC2 (centres unmarked) [Compound 524, N-[1-(3,5-difluorophenyl)pyrazol-3-yl]-2-(3-fluoro-2-pyridyl)spiro[2.2]pentane-2-carboxamide]
The IC50 of the first is 3.2-fold lower: 470 nM for the first, 1500 nM for the second.

Going from `Cc1cc(NC(=O)C2(c3ncccc3F)CC23CC3)nn1-c1ccc(F)cc1F` (centres unmarked) [Compound 523, N-[1-(2,4-difluorophenyl)-5-methyl-pyrazol-3-yl]-2-(3-fluoro-2-pyridyl)spiro[2.2]pentane-2-carboxamide] to `COc1ccc(C2(C(=O)Nc3ccn(-c4ccnc(F)c4)n3)CC2)cc1` [Compound 249, N-[1-(2-fluoro-4-pyridyl)pyrazol-3-yl]-1-(4-methoxyphenyl)cyclopropanecarboxamide], the IC50 falls from greater than 2000 nM to 640 nM. The second is the more potent here.
